According to patent US20240277658A1, “NLRP3 ACTIVATORS FOR USE IN THE TREATMENT OF INFECTIOUS DISEASES OR CANCER BY ACTIVATING NLRP3 INFLAMMASOME” (ALBERT-LUDWIGS-UNIVERSITÄT FREIBURG, priority 2020, published 2024):
Where “and” joins values, the source holds several entries; their conditions need not be identical. Equal entries are not always repeated. Where two headings read alike, the source gives them in different places.

How the values were obtained:
NLRP3 inflammasome = molecular target: T1, NLRP3 inflammasome (Mus musculus, UniProt Q8R4B8); assay: IL-1β release from LPS-primed BMDCs (ELISA) as readout of NLRP3 inflammasome activation; format: cell-based
T1 construct: endogenous in cells; host or cells: primary mouse bone marrow-derived dendritic cells (BMDCs), LPS-primed
Summary of the method: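 NLRP3 inflammasome activation was read out as IL-1β released into the supernatant, measured by ELISA. Murine BMDCs were primed with LPS (50 ng ml^−1, 3 hours), then incubated with compounds for 3 hours, with each condition run in three technical replicates. Nigericin at 5 μM acted as the positive control activator, and IL-1β release was also expressed as a percentage of that control.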

BMDCs = assay: LDH release (lytic cell death, pyroptosis) from LPS-primed BMDCs; format: cell-based, mouse; conditions: for Average (% positive control): LDH release; for cytotoxicity at 50 µM / cytotoxicity at 18.75 µM / cytotoxicity at 37.5 µM / cytotoxicity at 75 µM / cytotoxicity at 25 µM: Mus musculus, BMDC
Summary of the method: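 LDH released into medium, detected colorimetrically, served as the pyroptosis read-out in triplicate. LPS-primed (50 ng ml^−1, 3 h) murine bone marrow-derived dendritic cells received test compounds, typically 50 μM, or nigericin (5 μM), R837 or CL097 (100 μM) for 3 hours.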

[1] = IL-1β release, compound 50 μM, positive control nigericin 5 μM
[2] = compound 50 μM, LPS-primed BMDCs
[3] = single replicates, compound 50 μM, LPS-primed BMDCs
[4] = compound 50 μM, positive control nigericin 5 μM
[5] = compound 50 μM, LPS-primed BMDCs, read-out: Average LDH release (% of max.)
[6] = single replicates, compound 50 μM, LPS-primed BMDCs, read-out: LDH release (% of max.)

T1 sequence (Q8R4B8 whole entry): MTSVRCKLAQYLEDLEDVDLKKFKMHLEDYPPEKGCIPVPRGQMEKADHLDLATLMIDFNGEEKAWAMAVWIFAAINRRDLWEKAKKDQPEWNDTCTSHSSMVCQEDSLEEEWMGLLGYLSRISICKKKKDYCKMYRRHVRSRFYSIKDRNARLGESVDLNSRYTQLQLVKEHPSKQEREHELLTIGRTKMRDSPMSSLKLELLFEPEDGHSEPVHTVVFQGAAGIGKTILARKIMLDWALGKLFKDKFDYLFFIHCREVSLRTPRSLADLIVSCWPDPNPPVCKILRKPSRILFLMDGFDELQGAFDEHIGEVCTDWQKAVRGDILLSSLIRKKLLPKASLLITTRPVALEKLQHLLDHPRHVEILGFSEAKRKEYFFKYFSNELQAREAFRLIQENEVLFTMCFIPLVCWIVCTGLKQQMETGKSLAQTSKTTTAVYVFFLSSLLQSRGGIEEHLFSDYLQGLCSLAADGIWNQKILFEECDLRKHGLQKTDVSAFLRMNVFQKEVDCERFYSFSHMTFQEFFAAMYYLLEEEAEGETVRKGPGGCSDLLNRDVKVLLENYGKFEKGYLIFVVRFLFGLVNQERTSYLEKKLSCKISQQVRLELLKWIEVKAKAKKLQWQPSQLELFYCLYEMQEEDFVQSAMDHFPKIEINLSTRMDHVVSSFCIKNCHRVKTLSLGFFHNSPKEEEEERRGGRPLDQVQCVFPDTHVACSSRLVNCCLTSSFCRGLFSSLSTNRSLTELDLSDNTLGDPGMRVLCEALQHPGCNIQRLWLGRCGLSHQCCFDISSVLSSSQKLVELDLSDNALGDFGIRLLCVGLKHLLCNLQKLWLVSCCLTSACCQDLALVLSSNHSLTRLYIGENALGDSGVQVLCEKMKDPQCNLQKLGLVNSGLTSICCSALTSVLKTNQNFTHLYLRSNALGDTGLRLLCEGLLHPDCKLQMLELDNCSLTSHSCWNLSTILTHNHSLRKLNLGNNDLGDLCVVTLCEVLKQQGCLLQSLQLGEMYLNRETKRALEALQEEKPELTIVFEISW

Row | Average (% positive control) (NLRP3 inflammasome; [1]) | Average IL-1β (NLRP3 inflammasome; [2]) | Compound | IL-1β (NLRP3 inflammasome; [3]) | Average (% positive control) (BMDCs; [4]) | cytotoxicity at 50 µM (BMDCs; [5]) | cytotoxicity at 50 µM (BMDCs; [6]) | other results
1 | 15.691 % positive control | 1.125 ng/mL | CCc1ccc(Cl)c(CC)c1NC(=O)NC(c1nc(-c2cccnc2)no1)C(C)C (stereo not drawn) [L01.113, 1-(3-chloro-2,6-diethyl-phenyl)-3-{2-methyl-1-[3-(pyridin-3-yl)-1,2,4-oxadiazol-5-yl]propyl}-urea] | 1.145 ng/mL and 1.165 ng/mL and 1.064 ng/mL | 49.256 % positive control | 36% | 37.4% | –
2 | 13.268 % positive control | 0.951 ng/mL | Cc1ccc(NC(=O)Nc2ccccc2)cc1F [L01.124, 3-(3-fluoro-4-methyl-phenyl)-1-phenylurea] | 0.928 ng/mL and 0.902 ng/mL and 1.024 ng/mL | 19.235 % positive control | 14.1% | 14.1% | –
3 | 0.955 % positive control | 0.068 ng/mL | N#Cc1ccc(NC(=O)NC(CO)c2nc(-c3ccccc3)no2)cc1 (stereo not drawn) [L01.112, 1-(4-cyanophenyl)-3-[2-hydroxy-1-(3-phenyl-1,2,4-oxadiazol-5-yl)-ethyl]urea] | 0.075 ng/mL and 0.069 ng/mL and 0.061 ng/mL | 10.010 % positive control | 7.32% | 7.96% | –
4 | 1.703 % positive control | 0.122 ng/mL | CC(=NO)c1ccc(NC(=O)Nc2ccccc2)cc1 [L01.095, 3-{4-[1-(hydroxyimino)-ethyl]phenyl}-1-phenyl-urea] | 0.137 ng/mL and 0.128 ng/mL and 0.102 ng/mL | 7.959 % positive control | 5.82% | 5.21% | –
5 | 6.911 % positive control | 0.495 ng/mL | COc1ccc(NC(=O)Nc2ccccc2)cc1Cl [L01.026, 3-(3-chloro-4-methoxy-phenyl)-1-phenylurea] | 0.452 ng/mL and 0.473 ng/mL and 0.562 ng/mL | 14.776 % positive control | 10.8% | 9.23% | –
6 | 0.980 % positive control | 0.070 ng/mL | CC(C)C(NC(=O)Nc1cccc(C(F)(F)F)c1)c1nc(-c2cccnc2)no1 (stereo not drawn) [L01.005, 3-{2-methyl-1-[3-(pyridin-3-yl)-1,2,4-oxadiazol-5-yl]propyl}-1-[3-(trifluoromethyl)-phenyl]urea] | 0.053 ng/mL and 0.074 ng/mL and 0.084 ng/mL | 20.238 % positive control | 14.8% | 9.31% | –
7 | 0.826 % positive control | 0.059 ng/mL | O=C(NCc1nc(-c2cccnc2)no1)Nc1ccc([N+](=O)[O-])cc1Cl [L01.042, 1-(2-chloro-4-nitrophen-yl)-3-{[3-(pyridin-3-yl)-1,2,4-oxadiazol-5-yl]-methyl}urea] | 0.060 ng/mL and 0.069 ng/mL and 0.048 ng/mL | 9.993 % positive control | 7.31% | 7.09% | –
8 | 4.638 % positive control | 0.332 ng/mL | O=C(Nc1ccccc1)Nc1ccc(C(=O)N2CCC2)cc1 [L01.008, 1-[4-(azetidine-1-carbon-yl)phenyl]-3-phenylurea] | 0.361 ng/mL and 0.324 ng/mL and 0.313 ng/mL | 13.046 % positive control | 9.54% | 11% | –
9 | 4.526 % positive control | 0.324 ng/mL | O=C1CN(c2ccccc2)C(=O)N1Cc1nc(-c2cccs2)no1 [L01.089, 1-phenyl-3-{[3-(thio-phen-2-yl)-1,2,4-oxadiazol-5-yl]meth-yl}imidazolidine-2,4-dione] | 0.313 ng/mL and 0.316 ng/mL and 0.344 ng/mL | 10.402 % positive control | 7.61% | 8.67% | –
10 | 1.956 % positive control | 0.140 ng/mL | N#Cc1ccc(NC(=O)Nc2ccccc2)cc1 [L01.038, 1-(4-cyanophenyl)-3-phenylurea] | 0.166 ng/mL and 0.127 ng/mL and 0.128 ng/mL | 16.337 % positive control | 12% | 12.8% | –
11 | 0.822 % positive control | 0.059 ng/mL | CC(C)CC(NC(=O)Nc1cccc(N2CCNC2=O)c1)c1nc(-c2nnc[nH]2)no1 (stereo not drawn) [L01.010, 3-{3-methyl-1-[3-(4H-1,2,4-triazol-3-yl)-1,2,4-oxadiazol-5-yl]butyl}-1-[3-(2-oxoimidazolidin-1-yl)phenyl]urea] | 0.065 ng/mL and 0.059 ng/mL and 0.053 ng/mL | 7.822 % positive control | 5.72% | 5.64% | –
12 | – | – | O=C(Nc1cccc(Cl)c1)Nc1ccc([N+](=O)[O-])cc1Cl [TCMDC-143175, 3-(2-chloro-4-nitrophen-yl)-1-(3-chlorophenyl)-urea] | – | – | – | – | Average IL-1β (NLRP3 inflammasome; 18.75 μM): 0.105 ng/mL; IL-1β (NLRP3 inflammasome; 18.75 μM, individual replicate values): 0.102 ng/mL and 0.104 ng/mL and 0.110 ng/mL; Average IL-1β (NLRP3 inflammasome; 37.5 μM): 0.291 ng/mL; IL-1β (NLRP3 inflammasome; 37.5 μM, individual replicate values): 0.309 ng/mL and 0.275 ng/mL and 0.290 ng/mL; Average IL-1β (NLRP3 inflammasome; 75 μM): 0.417 ng/mL; IL-1β (NLRP3 inflammasome; 75 μM, individual replicate values): 0.423 ng/mL and 0.381 ng/mL and 0.446 ng/mL; Average (% positive control) (NLRP3 inflammasome; IL-1β, 18.75 μM, positive control EN22 18.75 μM): 1.666 % positive control; Average (% positive control) (NLRP3 inflammasome; IL-1β, 37.5 μM, positive control EN22 18.75 μM): 4.609 % positive control; Average (% positive control) (NLRP3 inflammasome; IL-1β, 75 μM, positive control EN22 18.75 μM): 6.592 % positive control; cytotoxicity at 18.75 µM (BMDCs; section 1.4, 18.75 μM, read-out: Average LDH release (% of max.)): 35.5%; cytotoxicity at 37.5 µM (BMDCs; section 1.4, 37.5 μM, read-out: Average LDH release (% of max.)): 74.7%; cytotoxicity at 75 µM (BMDCs; section 1.4, 75 μM, read-out: Average LDH release (% of max.)): 91.4%; cytotoxicity at 18.75 µM (BMDCs; section 1.4, single replicates, 18.75 μM, read-out: LDH release (% of max.)): 35.3%; cytotoxicity at 37.5 µM (BMDCs; section 1.4, single replicates, 37.5 μM, read-out: LDH release (% of max.)): 72.8%; cytotoxicity at 75 µM (BMDCs; section 1.4, single replicates, 75 μM, read-out: LDH release (% of max.)): 91.5%; Average (% positive control) (BMDCs; section 1.4, 18.75 μM, positive control EN22 18.75 μM): 49.754 % positive control; Average (% positive control) (BMDCs; section 1.4, 37.5 μM, positive control EN22 18.75 μM): 104.647 % positive control; Average (% positive control) (BMDCs; section 1.4, 75 μM, positive control EN22 18.75 μM): 128.113 % positive control
13 | 6.360 % positive control | 0.456 ng/mL | O=C(Nc1ccccc1)Nc1ccc(OC(F)(F)F)cc1 [L01.061, 1-phenyl-3-[4-(trifluoro-methoxy)phenyl]urea] | 0.508 ng/mL and 0.439 ng/mL and 0.420 ng/mL | 19.349 % positive control | 14.2% | 15.9% | –
14 | – | – | Cc1c(F)cccc1NC(=O)Nc1cccc(Cl)c1 [AH3, 1-(3-chlorophenyl)-3-(3-fluoro-2-methylphenyl) urea] | – | – | – | – | Average IL-1β (NLRP3 inflammasome; 25 μM, AH series table): 0.588 ng/mL; IL-1β (NLRP3 inflammasome; 25 μM, individual replicate values, AH series table): 0.540 ng/mL and 0.630 ng/mL and 0.593 ng/mL; Average IL-1β (NLRP3 inflammasome; 50 μM, AH series table): 1.519 ng/mL; IL-1β (NLRP3 inflammasome; 50 μM, individual replicate values, AH series table): 1.267 ng/mL and 1.615 ng/mL and 1.675 ng/mL; Average IL-1β (NLRP3 inflammasome; 75 μM, AH series table): 2.224 ng/mL; IL-1β (NLRP3 inflammasome; 75 μM, individual replicate values, AH series table): 2.288 ng/mL and 2.351 ng/mL and 2.032 ng/mL; Average (% positive control) (NLRP3 inflammasome; IL-1β, 25 μM, positive control EN22 10 μM): 5.875 % positive control; Average (% positive control) (NLRP3 inflammasome; IL-1β, 50 μM, positive control EN22 10 μM): 15.193 % positive control; Average (% positive control) (NLRP3 inflammasome; IL-1β, 75 μM, positive control EN22 10 μM): 22.240 % positive control; Average (% positive control) (BMDCs; 25 μM, positive control EN22 10 μM): 16.733 % positive control; Average (% positive control) (BMDCs; 50 μM, positive control EN22 10 μM): 29.496 % positive control; Average (% positive control) (BMDCs; 75 μM, positive control EN22 10 μM): 44.370 % positive control; cytotoxicity at 25 µM (BMDCs; 25 μM, AH series table, read-out: Average LDH release (% of max.)): 12.9%; cytotoxicity at 25 µM (BMDCs; 25 μM, individual replicate values, AH series table, read-out: LDH release (% of max.)): 12.8%; cytotoxicity at 50 µM (BMDCs; 50 μM, AH series table, read-out: Average LDH release (% of max.)): 22.7%; cytotoxicity at 50 µM (BMDCs; 50 μM, individual replicate values, AH series table, read-out: LDH release (% of max.)): 22.2%; cytotoxicity at 75 µM (BMDCs; 75 μM, individual replicate values, read-out: LDH release (% of max.)): 34.6%; cytotoxicity at 75 µM (BMDCs; 75 μM, read-out: Average LDH release (% of max.)): 34.1%
